“Also recorded” adds a separate entry of the source. Like-named read-outs stand apart in the source and are kept apart here.
Columns and labels:
[1] = Caccia et al., 1985; cited from earlier work
[2] = test system: human Aβ infusion mouse model; test: Human Aβ infusion mouse model, Y maze behavioral assay; type: in vivo; settings: 1.25, 2.5, 5, and 10 mg/kg
Text: (§1) Once per day treatment will begin at day 21 after start of Aβ ICV infusion and continue for 14 days. Beginning at day 50 after start of Aβ ICV infusion, the Y maze test of spontaneous alternation will be used to evaluate hippocampus dependent spatial learning as described previously (Craf et al., J Mol. Neurosci. 24:115-122, 2004a). Briefly, each mouse will be placed in the “start” arm and then released to choose one of the two other arms. The mouse will be blocked from exiting the chosen arm for 30 s then they will be placed back in the start arm and released again to choose one of the two other arms. If the second choice is different from the first one, the mouse will be scored as alternating. Mice will be tested for 10 days with one trial per day, and a mean percent alternation will be calculated for each mouse. […] The brain will be removed and longitudinally bisected as described previously (Craft et al., Neurobiolo Aging 25:12834292, 2004b). […] The hippocampus will be dissected from the left half of the brain and snap-frozen for subsequent biochemical evaluation.

[3] = test system: human Aβ infusion mouse model; test: Human Aβ infusion mouse model, hippocampal neuroinflammation and synaptic biochemical endpoints; type: in vivo; settings: hippocampus, Aβ-infused mice, oral compound
Protocol: The study design and treatment paradigm for intracerebroventricular (ICV) infusion of human oligomerie Aβ1-42 into the mouse will be as described previously (Craft et al., Neurobiol Aging 25:1283-1292, 2004b), except that compound administration will be by mouth. Female C57Bl/6 mice (Harlan) weighing 20-25 g (3-4 months old) will be housed in a pathogen free facility under an approximate 12 h/12 h dark and light cycle and they will have access ad libitum to food and water.
as §1
S100B levels in hippocampal supernatants will be measured by a empium-based ELISA essentially as previously described (Van Eldik and Griffin, Biochem Biophys Acta 1223:398-403, 1994). Synaptophysin levels in hippocampal supernatants will be quantified by ELISA following the procedure described previously (Craft at al, 20041, supra). PSD-95 levels will be determined by Western blots using anti-PSD-95 antibodies (1:100,000 dilution; Upstate Biotechnology) as described (Craft et al., 2004b).
It was previously shown that Aβ-induced neuroinflammation is an early event associated with the onset and progression of pathophysiology, and can be suppressed by an inhibitor of glial activation. Female C57Bl/6 mice (Harlan) weighing […] (3-4 months old) were housed in a pathogen free facility under an approximate 12 h/12 h dark and light cycle and had access ad libitum to food and water. All animal procedures were approved by the Northwestern Animal Care and Use Committee.

liver histology, mice = test: Chronic, therapeutic dose liver toxicity assay
Text: (§2) Mice will be anesthetized and sacrificed as described above. Livers will be removed, fixed in 4% (v/v) paraformaldehyde and paraffin-embedded for histology. To assess histological toxicity, 4 μm liver sections will be stained with haematoxylin and eosin. Two independent observers blinded to the treatment groups will perform microscopic assessment of the tissue for injury.
After two weeks of treatment, mice are sacrificed and liver toxicity analyzed as described above. For each chronic toxicity assay, 5 mg of compound is required.
as §2, with “were” for “will be”, “killed” for “sacrificed”, “paraformaldehyde,” for “paraformaldehyde”, “pan” for “μm”, “hematoxylin” for “haematoxylin”, “performed” for “will perform”

[4] = test system: LPS-induced IL-1β production in BV-2 microglia cells; test: LPS-induced IL-1β production in BV-2 microglial cells; settings: Mus musculus, BV-2, 16 h, read-out: IL-1β, concentration required for 50% inhibition
[5] = test system: QT interval in Lead II electrocardiogram, anesthetized guinea pigs; test: Cardiac QT interval prolongation assay in anesthetized guinea pigs; settings: 15 mg/kg PO
Protocol: The QT interval studies are performed by evaluating compounds for effects on QT interval in Lead II electrocardiograms measured in anesthetized guinea pigs (Hirohashi et al., 1991, Arzneim.-Forsch./Drug Res 41:9-18), one of the species recommended in the FDA white paper. Vehicle or compound is administered orally at 15 mg/kg (dosing volume of 10 ml/kg) to groups of male guinea pigs (weighing 330-350 g), with 5 animals per group. […] Heart rate, arterial blood pressure, and QT intervals are measured at baseline, and at 15, 30, 45, and 60 min after compound administration. Sotalol administered iv at 0.3 mg/kg serves as the positive control compound. The QT intervals are corrected for changes in heart rate using both Bazetes and Fridericia's formulae. Any increase in QT interval values over baseline values exceeding the upper 95% confidence limit of the mean changes at the corresponding time point in the vehicle-treated control group for two consecutive observation times indicates significant QT interval prolongation in the individually treated animals.
The QT intervals (QTc) were corrected for changes in heart rate using both Bazett's and Fridericia's formulae.
The test substance was dissolved in 2% Tween 80 and administered by oral administration. The substance was treated at 15 mg/kg with a dosing volume of 10 ml/kg. Duncan Hartley derived guinea pigs provided by MDS Pharma Services—Taiwan Ltd were used. Sotalol was obtained from Sigma, USA.
Groups of guinea pigs (weighing 330-350 g) with 5 animals each were employed. The animals were anesthetized with urethane (1500 mg/kg, IV bolus injection in a volume of 5 ml/kg) and breathed spontaneously. Lead II ECG was obtained with subdermal needle electrodes and ECG signal conditioner. Heart rate was measured with a pulse rate tachometer. The carotid artery was cannulated with a catheter that was connected to a pressure transducer and a pressure processor for measurements of arterial blood pressure (BP). […] QTC intervals were obtained by correction for heart rate changes using Bazett's and Fridericia's formulae. Increase in QTc interval in individual treated guinea pigs that lies outside the upper limit of 95% confidence limits (mean±SD) of the changes for the vehicle-treated control at corresponding time points for two consecutive times is considered significant.

[6] = test system: nitric oxide (NO) production in BV-2 microglial cells; test: LPS-stimulated accumulation of nitrite (NO metabolite) in BV-2 cells, Griess assay; type: cell-based, mouse; settings: Mus musculus, read-out: NO, concentration required for 50% inhibition
[7] = mouse, in vivo

| Structure (SMILES) | prevention of Y-maze behavioral deficit [2] | loss of PSD-95 [3] | loss of synaptophysin [3] | up-regulation of IL-1β [3] | up-regulation of S100B [3] | liver toxicity score versus control mice (liver histology, mice; mouse, in vivo, po, […]) | also measured |
| --- | --- | --- | --- | --- | --- | --- | --- |
| Cc1cc(-c2ccccc2)nnc1NCCN1CCOCC1 [minaprinc, minaprine] | – | – | – | – | – | – | brain/blood ratio [1]: about 2 |
| c1ccc(-c2cc(-c3ccncc3)c(N3CCN(c4ncccn4)CC3)nn2)cc1 [MW01-6-189WH, 4-pyridyl-6-phenyl-3-(4-pyrimidin-2-ylpiperazin-1-yl)pyridazine] | significantly effective | prevented | trend toward preventing | blocked | blocked | – | liver toxicity score versus control mice (liver histology, mice; C57Bl/6 mice, […] oral, 2 weeks, scale 0 (best) to 9 (worst)): no significant differences |
| Cc1cc(-c2ccccc2)nnc1N1CCN(c2ncccn2)CC1 [MW01-2-151SRM, 4-methyl-6-phenyl-3-(4-pyrimidin-2-ylpiperazin-1-yl)pyridazine] | significantly effective | prevented | prevented | blocked | blocked | no significant differences | IC50 [4]: 8.3 ± 5.8 µM; effect on heart rate [5]: no significant effects; effect on mean blood pressure [5]: no significant effects; QTc / QT interval prolongation ([5]; 60 min post-dosing, 5 guinea pigs): did not cause any significant prolongation; also recorded: Neither compound increased; IC50 ([6]; LPS-stimulated BV-2 cells, 16 hrs): > 25 µM |
| c1ccc(-c2cc(-c3ccccc3)c(N3CCN(c4ncccn4)CC3)nn2)cc1 [MW01-5-188WH, 4,6-diphenyl-3-(4-pyrimidin-2-ylpiperazin-1-yl)pyridazine] | – | – | – | – | – | no significant differences | IC50 ([6]; BV-2, 16 h): > 25 µM; oral bioavailability properties [7]: good oral bioavailability; time of decline to basal levels / bulk clearance, plasma/blood ([7]; po): ≤ 120 min |

Source: patent US9408845B2, “Formulations containing pyridazine compounds” (Northwestern University, priority 2006, dated 2016)
